This is an account of results in patent US7087252B2, “Medicinal preparation containing phenylethanoid glycosides extracted from herbaceous plant, Cistanche tubulosa (Schrenk.) Wight, process of making the same, and uses of the same” (Sinphar Pharmaceutical Co., Ltd., priority 2003, dated 2006).

Assay [1] concerns thrombosis of the vein bypass of rats. The assay can be described thus: Thrombosis of the vein bypass of rats. The class given is in vivo, male SD rats. The note with it: 100 mg/kg orally. The text has this:
A study was done on the effect of the preparation of the present invention on thrombosis of the vein bypass of the rats. The male SD rats were studied as compared with the aspirin. Thrombosis inhibition rate (%)=(distilled water comparative group thrombosis weight−drug group thrombosis weight)/distilled water comparative group thrombosis weight×100%.

For assay [2], the system named is blood platelets aggregation of rats. In words: ADP-caused aggregation of blood platelets of rats after oral administration. The class given is in vivo, male SD rats. The note with it: 100 mg/kg orally for 7 days. The method, then: A study was done on the effect of the preparation of the present invention on aggregation of blood platelets of the rats.
The aggregation of blood platelets was caused by using adenosine disodium diphosphate (ADP). 1 mg/ml ADP solution was kept refrigerated before use. When the ADP solution was about to be used, it was diluted three times with the phosphoric acid buffer solution.
The male SD rats were randomly divided into five groups in accordance with the body weight. These five groups were the distilled water comparative group, the aspirin group, the 200 mg/kg preparation group, the 100 mg/kg preparation group, and the 50 mg/kg preparation group. The drugs were orally administered, with the administration volume being […]. The rats of the distilled water comparative group were given distilled water in same quantity. The administration continued for 7 days. The rats were not fed for 12 hours prior to the final administration. One hour after the final administration the blood was drawn out from the main artery. The blood so draw out was prevented from aggregation by 3.8% sodium citrate (1:9). […] The aggregation degree was determined by using a SPA-4 multifunctional blood platelet aggregation meter. The inhibition rate of the blood platelet aggregation is calculated by the following formula. […]

Assay [3] deals with learning memory of LACA mice. In words: Water maze experiment, effect on learning memory of mice (d value analysis of response time). The class given is in vivo. Particulars: 400 mg/kg orally vs control group; second time test; n = 27. The text has this: The medicinal preparation of the present invention was used in a water maze experiment to study its effect on the learning memory of LACA mice. The Piracetam Tablets was used as a positive comparative drug for testing 6 days per week. The test lasted for 27 days. According to the data listed in the Table 2, it is readily apparent that the preparation of the present invention has a meaningful effect on the learning memory of the mice, as exemplified by the difference in the response time between the control group and the doped groups, which were respectively doped with 50 mg/kg of the preparation containing phenylethanoid glycosides, 200 mg/kg of the preparation containing phenylethanoid glycosides, and 400 mg/kg of the preparation containing phenylethanoid glycosides.

Assay [4] deals with memory loss of LACA mice induced by ethanol. The assay can be described thus: Water maze experiment, prevention of memory loss induced by ethanol. The class given is in vivo. Particulars: 400 mg/kg, one-week orally. On the procedure:
The effect of the preparation of the present invention on the prevention of memory loss by the LACA mice was studied by the water maze experiment. The mice were orally administered with the drugs. One hour after such an oral administration, they were provided with 30% ethanol 0.1 ml/10 g BW. In 30 minutes, the water maze experiment was started.

Each structure is given as a SMILES string.

As to `CC(=O)Oc1ccccc1C(=O)O` [aspirin], the thrombosis inhibition rate in assay [1] (vs distilled water comparative group) came to 34.97%. Also, the thrombosis weight in assay [1] (x ± SD) is given as 29.2 ± 4.00 mg. This compound had an aggregation inhibition in assay [2] (vs distilled water group) of 40.30%. The same compound registered a maximum aggregation in assay [2] (±SD) of 32.73 ± 11.14 %.

For `NC(=O)CN1CCCC1=O` [Piracetam], in assay [3], the “d value ≧0.5, %” value is listed as 18.5%; the “d value ≧0.5, day” value was 5 days; the “d value ≧0.5 sum, %” value was found to be 25.5%; the “d value ≧0.5 sum, day (period when the response time shows meaningful difference)” value was 7 days. Moreover, in assay [3], the “d value ≧0.8, %” value amounted to 7.4% and the “d value ≧0.8, day” value turned out to be 2 days. In addition, in assay [4], the “Arrival at destination after being trained, Error number” value is 0/0; the “Arrival at destination after being trained, Time” value was 8.00 ± 0.46 s; the “Arrival at destination after being trained, error number of animal” value is on record as 0/0. For the same compound, in assay [4] (30% ethanol 0.1 ml/10 g BW), the “Arrival at destination after being given alcohol, Error number” value was 54; the “Arrival at destination after being given alcohol, Error rate” value is 9.00 times/number of animal; the “Arrival at destination after being given alcohol, Group error rate” value was 5.40 times/number of animal; the “Arrival at destination after being given alcohol, error number of animal” value stood at 6.
